Measurements: DBAASP
Converted amounts (≈) assume the structure as drawn.

Assays:
Assay in all cases: ≥ marks a high value that may be exact or a test limit, other limits are often not marked, values filed in µg/mL are converted to µM
[1] = test system: Pseudomonas aeruginosa Ps4
[2] = test system: Candida albicans NCPF 1467
[3] = test system: Escherichia coli NCTC 10418
[4] = test system: Staphylococcus aureus NCTC 10788
Acinetobacter baumannii = test system: Acinetobacter baumannii
[5] = test system: Escherichia coli ATCC 25922
Escherichia coli K88 = test system: Escherichia coli K88
Escherichia coli K99 = test system: Escherichia coli K99
Escherichia coli UB1005 = test system: Escherichia coli UB1005
Escherichia coli = test system: Escherichia coli
Klebsiella pneumoniae = test system: Klebsiella pneumoniae
[6] = test system: Pseudomonas aeruginosa ATCC 27853
[7] = test system: Pseudomonas aeruginosa CICC 21625
[8] = test system: Pseudomonas aeruginosa CICC 21630
[9] = test system: Pseudomonas aeruginosa PAO1
Pseudomonas aeruginosa = test system: Pseudomonas aeruginosa
[10] = test system: Salmonella enterica subsp. enterica serovar Pullorum C79-13
[11] = test system: Salmonella enterica subsp. enterica serovar Typhimurium ATCC 14028
[12] = test system: Salmonella enterica subsp. enterica serovar Typhimurium C77-31
Candida albicans = test system: Candida albicans
[13] = test system: Enterococcus faecalis ATCC 29212
[14] = test system: Pseudomonas aeruginosa H103
[15] = test system: Salmonella enterica serovar Typhimurium
[16] = test system: Staphylococcus aureus ATCC 25923
[17] = test system: Staphylococcus epidermidis

`CC[C@H](C)[C@H](NC(=O)[C@H](CC(N)=O)NC(=O)[C@H](CCCN=C(N)N)NC(=O)[C@H](CCC(N)=O)NC(=O)[C@H](Cc1c[nH]c2ccccc12)NC(=O)[C@@H](NC(=O)[C@@H](N)Cc1ccccc1)[C@@H](C)CC)C(=O)N[C@@H](CCCN=C(N)N)C(=O)N[C@@H](CCCCN)C(=O)N[C@H](C(=O)N[C@@H](CCCN=C(N)N)C(N)=O)C(C)C` [FIWQRNIRKVR] was tested, and the MIC [1] was no less than 165 µM.

Work on `CC[C@H](C)[C@H](NC(=O)[C@H](C)NC(=O)[C@@H]1CCCN1C(=O)[C@H](CC(C)C)NC(=O)[C@@H](N)Cc1ccccc1)C(=O)N[C@@H](C)C(=O)NCC(=O)N[C@H](C(=O)N[C@@H](C)C(=O)N[C@@H](C)C(=O)N[C@@H](CCCCN)C(=O)N[C@@H](Cc1ccccc1)C(=O)N[C@@H](CC(C)C)C(=O)N1CCC[C@H]1C(=O)N[C@@H](CCCCN)C(=O)N[C@H](C(=O)N[C@@H](Cc1ccccc1)C(=O)N[C@H]1CSSC[C@@H](C(=O)O)NC(=O)[C@H](CCCCN)NC(=O)[C@H](CCCCN)NC(=O)[C@H]([C@@H](C)O)NC(=O)[C@H]([C@@H](C)CC)NC(=O)[C@H](C)NC1=O)[C@@H](C)CC)C(C)C` [FLPAIAGVAAKFLPKIFCAITKKC] yielded an MIC [2] of 3.14 µM (≈ 8 µg/mL), an MIC [3] of 25.1 µM (≈ 64 µg/mL) and an MIC [4] of 6.28 µM (≈ 16 µg/mL).

With `CC[C@H](C)[C@H](NC(=O)[C@H](CCCCN)NC(=O)[C@H](CCCCN)NC(=O)[C@@H](NC(=O)[C@H](CC(C)C)NC(=O)[C@H](CCCCN)NC(=O)[C@@H]1CCCN1C(=O)[C@@H](NC(=O)[C@H](CC(C)C)NC(=O)[C@H](CO)NC(=O)[C@H](CC(C)C)NC(=O)[C@@H](N)Cc1ccccc1)[C@@H](C)CC)C(C)C)C(=O)N[C@H](C(=O)N[C@@H](CCCCN)C(=O)N[C@@H](C)C(=O)N[C@@H](Cc1ccccc1)C(=O)N[C@@H](CCCCN)C(=O)O)[C@@H](C)CC` [FLSLIPKLVKKIIKAFK] the MIC [2] was 2.5 µM (≈ 4.97 µg/mL), the MIC [3] was 5 µM (≈ 9.93 µg/mL) and the MIC [4] was 2.5 µM (≈ 4.97 µg/mL).

For `CC[C@H](C)[C@H](NC(=O)[C@H](CCCN=C(N)N)NC(=O)[C@H](Cc1c[nH]c2ccccc12)NC(=O)CNC(=O)[C@H](CCCN=C(N)N)NC(=O)[C@H](Cc1c[nH]c2ccccc12)NC(=O)[C@@H](N)Cc1ccccc1)C(=O)N[C@@H](CCCN=C(N)N)C(=O)N[C@@H](CCCN=C(N)N)C(N)=O` [FWRGWRIRR], the MIC [1] was no less than 93.8 µM.

`CC[C@H](C)[C@H](N)C(=O)N[C@@H](CCCCN)C(=O)N1CCC[C@H]1C(=O)N[C@H](C(=O)N[C@H](C(=O)N[C@@H](CCCCN)C(=O)N1CCC[C@H]1C(=O)N[C@H](C(=O)N[C@H](C(=O)N[C@@H](CCCCN)C(=O)N1CCC[C@H]1C(=O)N[C@H](C(=O)N[C@H](C(=O)N[C@@H](CCCCN)C(=O)N1CCC[C@H]1C(=O)N[C@H](C(=O)N[C@H](C(=O)N[C@@H](CCCCN)C(=O)N1CCC[C@H]1C(=O)N[C@H](C(=O)N[C@H](C(=O)N[C@@H](CCCCN)C(=O)N1CCC[C@H]1C(=O)N[C@H](C(=O)N[C@H](C(=O)N[C@@H](CCCCN)C(=O)N1CCC[C@H]1C(=O)N[C@H](C(N)=O)[C@@H](C)CC)[C@@H](C)CC)[C@@H](C)CC)[C@@H](C)CC)[C@@H](C)CC)[C@@H](C)CC)[C@@H](C)CC)[C@@H](C)CC)[C@@H](C)CC)[C@@H](C)CC)[C@@H](C)CC)[C@@H](C)CC)[C@@H](C)CC` [IKPIIKPIIKPIIKPIIKPIIKPIIKPI] gave an MIC (Acinetobacter baumannii) of 2 µM (≈ 6.36 µg/mL), an MIC [5] of 8 µM (≈ 25.4 µg/mL) and an MIC (Escherichia coli K88) of 2 µM (≈ 6.36 µg/mL). The MIC (Escherichia coli K99) was 2 µM (≈ 6.36 µg/mL), the MIC (Escherichia coli UB1005) was 16 µM (≈ 50.9 µg/mL) and the MIC (Escherichia coli) was 16 µM (≈ 50.9 µg/mL). For the same molecule, the MIC (Klebsiella pneumoniae) was 16 µM (≈ 50.9 µg/mL), the MIC [6] was greater than 64 µM and the MIC [7] was no less than 64 µM. For the same molecule, the MIC [8] was no less than 64 µM, the MIC [9] was greater than 64 µM and the MIC (Pseudomonas aeruginosa) was greater than 64 µM. The MIC [10] was no less than 64 µM, the MIC [11] was 64 µM (≈ 203 µg/mL) and the MIC [12] was no less than 64 µM.

`NCCCC[C@H](NC(=O)[C@H](CCCN=C(N)N)NC(=O)[C@H](Cc1c[nH]c2ccccc12)NC(=O)[C@H](Cc1c[nH]c2ccccc12)NC(=O)[C@H](CCCN=C(N)N)NC(=O)[C@@H](N)CCCCN)C(=O)N[C@@H](Cc1c[nH]c2ccccc12)C(=O)N[C@@H](Cc1c[nH]c2ccccc12)C(=O)N[C@@H](CCCN=C(N)N)C(=O)O` [KRWWRKWWR] gave an MIC (Candida albicans) of 5.4 µM (≈ 8.03 µg/mL), an MIC [13] of 10.8 µM (≈ 16.1 µg/mL) and an MIC (Escherichia coli UB1005) of 2.7 µM (≈ 4.02 µg/mL). It also gave an MIC [14] of no less than 43.2 µM, an MIC [15] of 5.4 µM (≈ 8.03 µg/mL) and an MIC [16] of 0.7 µM (≈ 1.04 µg/mL). The MIC [17] was 0.7 µM (≈ 1.04 µg/mL).

`CC[C@H](C)[C@H](NC(=O)[C@H](CCCCN)NC(=O)[C@H](CCCN=C(N)N)NC(=O)[C@H](Cc1c[nH]c2ccccc12)NC(=O)[C@H](Cc1c[nH]c2ccccc12)NC(=O)[C@H](Cc1c[nH]c2ccccc12)NC(=O)[C@H](CCCCN)NC(=O)[C@H](Cc1c[nH]c2ccccc12)NC(=O)[C@@H](N)CCCCN)C(=O)O` [KWKWWWRKI] gave an MIC (Candida albicans) of 4.6 µM (≈ 6.52 µg/mL), an MIC [13] of 4.6 µM (≈ 6.52 µg/mL) and an MIC (Escherichia coli UB1005) of 4.6 µM (≈ 6.52 µg/mL). It also gave an MIC [14] of 4.6 µM (≈ 6.52 µg/mL), an MIC [15] of 4.6 µM (≈ 6.52 µg/mL) and an MIC [16] of 1.2 µM (≈ 1.7 µg/mL). The MIC [17] was 1.2 µM (≈ 1.7 µg/mL).

`CC(C)C[C@H](NC(=O)[C@@H]1CCCN1C(=O)[C@H](CCCCN)NC(=O)[C@H](CC(C)C)NC(=O)[C@H](CC(C)C)NC(=O)[C@@H]1CCCN1C(=O)[C@H](CCCCN)NC(=O)[C@H](CC(C)C)NC(=O)[C@H](CC(C)C)NC(=O)[C@@H]1CCCN1C(=O)[C@H](CCCCN)NC(=O)[C@H](CC(C)C)NC(=O)[C@H](CC(C)C)NC(=O)[C@@H]1CCCN1C(=O)[C@H](CCCCN)NC(=O)[C@@H](N)CC(C)C)C(N)=O` [LKPLLKPLLKPLLKPL] was tested, and the MIC (Acinetobacter baumannii) was 4 µM (≈ 7.29 µg/mL), the MIC [5] was 16 µM (≈ 29.2 µg/mL) and the MIC (Escherichia coli K88) was 16 µM (≈ 29.2 µg/mL). For the same molecule, the MIC (Escherichia coli K99) was 16 µM (≈ 29.2 µg/mL), the MIC (Escherichia coli UB1005) was 16 µM (≈ 29.2 µg/mL) and the MIC (Escherichia coli) was 32 µM (≈ 58.4 µg/mL). For the same molecule, the MIC (Klebsiella pneumoniae) was greater than 64 µM, the MIC [6] was greater than 64 µM and the MIC [7] was no less than 64 µM. For the same molecule, the MIC [8] was no less than 64 µM, the MIC [9] was greater than 64 µM and the MIC (Pseudomonas aeruginosa) was greater than 64 µM. It also gave an MIC [10] of no less than 32 µM, an MIC [11] greater than 64 µM and an MIC [12] of no less than 64 µM.

Work on `CC(C)C[C@H](NC(=O)[C@@H]1CCCN1C(=O)[C@H](CCCN=C(N)N)NC(=O)[C@H](CC(C)C)NC(=O)[C@H](CC(C)C)NC(=O)[C@@H]1CCCN1C(=O)[C@H](CCCN=C(N)N)NC(=O)[C@H](CC(C)C)NC(=O)[C@H](CC(C)C)NC(=O)[C@@H]1CCCN1C(=O)[C@H](CCCN=C(N)N)NC(=O)[C@H](CC(C)C)NC(=O)[C@H](CC(C)C)NC(=O)[C@@H]1CCCN1C(=O)[C@H](CCCN=C(N)N)NC(=O)[C@@H](N)CC(C)C)C(N)=O` [LRPLLRPLLRPLLRPL] yielded an MIC (Acinetobacter baumannii) of 2 µM (≈ 3.87 µg/mL), an MIC [5] of 8 µM (≈ 15.5 µg/mL) and an MIC (Escherichia coli K88) of 8 µM (≈ 15.5 µg/mL). For the same molecule, the MIC (Escherichia coli K99) was no less than 32 µM, the MIC (Escherichia coli UB1005) was no less than 32 µM and the MIC (Escherichia coli) was 16 µM (≈ 31 µg/mL). It also gave an MIC (Klebsiella pneumoniae) greater than 64 µM, an MIC [6] greater than 64 µM and an MIC [7] of no less than 64 µM. The MIC [8] was no less than 64 µM, the MIC [9] was greater than 64 µM and the MIC (Pseudomonas aeruginosa) was greater than 64 µM. It also gave an MIC [10] of 8 µM (≈ 15.5 µg/mL), an MIC [11] of 32 µM (≈ 61.9 µg/mL) and an MIC [12] of no less than 64 µM.

`CC[C@H](C)[C@H](NC(=O)[C@H](CCCN=C(N)N)NC(=O)[C@@H](NC(=O)[C@H](Cc1c[nH]c2ccccc12)NC(=O)[C@H](CCCN=C(N)N)NC(=O)[C@H](CCCN=C(N)N)NC(=O)[C@@H](N)CC(C)C)[C@@H](C)CC)C(=O)N[C@@H](CCCN=C(N)N)C(=O)N[C@@H](Cc1c[nH]c2ccccc12)C(=O)O` [LRRWIRIRW] showed an MIC (Candida albicans) of 10.7 µM (≈ 14.5 µg/mL), an MIC [13] of 5.4 µM (≈ 7.32 µg/mL) and an MIC (Escherichia coli UB1005) of 0.7 µM (≈ 0.948 µg/mL). It also gave an MIC [14] of 21.4 µM (≈ 29 µg/mL), an MIC [15] of 5.4 µM (≈ 7.32 µg/mL) and an MIC [16] of 1.3 µM (≈ 1.76 µg/mL). For the same molecule, the MIC [17] was 0.883 µM (≈ 1.2 µg/mL).

`CC[C@H](C)[C@H](NC(=O)[C@H](CCCN=C(N)N)NC(=O)[C@H](CC(C)C)NC(=O)[C@H](CCCN=C(N)N)NC(=O)[C@@H](N)C(C)C)C(=O)N[C@@H](CCCN=C(N)N)C(=O)N[C@H](C(=O)N[C@@H](CCCN=C(N)N)C(=O)N[C@H](C(=O)N[C@H](C(=O)N[C@@H](CCCN=C(N)N)C(=O)N[C@@H](CCCCN)C(=O)O)[C@@H](C)CC)C(C)C)C(C)C` [VRLRIRVRVIRK] gave an MIC (Candida albicans) of 8 µM (≈ 12.5 µg/mL), an MIC [13] of 4 µM (≈ 6.26 µg/mL) and an MIC (Escherichia coli UB1005) of 2 µM (≈ 3.13 µg/mL). The MIC [14] was 2 µM (≈ 3.13 µg/mL), the MIC [15] was 2 µM (≈ 3.13 µg/mL) and the MIC [16] was 1 µM (≈ 1.56 µg/mL). It also gave an MIC [17] of 1 µM (≈ 1.56 µg/mL).
